Here are results for one molecule from article PMC12123601, “Light-Induced, Lysine-Targeting Irreversible Covalent Inhibition of the Human Oxygen Sensing Hydroxylase Factor Inhibiting HIF (FIH)” (Journal of the American Chemical Society, 2025).

The target in the assay is T1, FIH^WT (Homo sapiens, UniProt Q9NWT6).
T1 construct: pET28a vectors encoding for full-length FIH with an N-terminal His6 tag; His6 (N); host or cells: Escherichia coli BL21
Briefly: Affinity-based fluorescence polarization (FP) assay with FIH WT, without and with 365 nm irradiation. As to conditions: read-out: Binding affinity to FIH^WT: Ki. The text has this: We also performed a reported affinity-based fluorescence polarization (FP) assay (Figure S6) , under light activation to measure the binding affinity of NBA-ZG-2291 to FIH (Figure A). […] These observations are consistent with the intact protein MS analyzes. We also evaluated the binding affinities of two negative controls to FIH, which were designed not to covalently react with Lys106.
4 (A) Light-induced click conjugation between NBA-ZG-2291 and FIH protein. (B) Light-induced binding affinity of NBA-ZG-2291 to FIH^ WT . (C) Light-induced binding affinity of NBA-ZG-2291 to FIH^ K106A . […] TEXT PRINTED IN THE PICTURE: (B) NBA-ZG-2291: Binding affinity to FIH^WT: Ki (nM): 414 ± 14 (Irradtion time (min): 0); Binding affinity to FIH^WT: Ki (nM): 74.1 ± 1.6 (Irradtion time (min): 15); Binding affinity to FIH^WT: Ki (nM): 46.7 ± 1.4 (Irradtion time (min): 30); Binding affinity to FIH^WT: Ki (nM): 33.2 ± 0.6 (Irradtion time (min): 60); Binding affinity to FIH^WT: Ki (nM): 30.2 ± 2.0 (Irradtion time (min): 90); Binding affinity to FIH^WT: Ki (nM): 32.1 ± 0.7 (Irradtion time (min): 120) | (B) Neg-1: Binding affinity to FIH^WT: Ki (nM): 423 ± 7 (Irradtion time (min): 0); Binding affinity to FIH^WT: Ki (nM): 408 ± 30 (Irradtion time (min): 15); Binding affinity to FIH^WT: Ki (nM): 459 ± 32 (Irradtion time (min): 30); Binding affinity to FIH^WT: Ki (nM): 427 ± 17 (Irradtion time (min): 60); Binding affinity to FIH^WT: Ki (nM): 396 ± 29 (Irradtion time (min): 90); Binding affinity to FIH^WT: Ki (nM): 428 ± 15 (Irradtion time (min): 120) | (B) Neg-2: Binding affinity to FIH^WT: Ki (nM): 742 ± 65 (Irradtion time (min): 0); Binding affinity to FIH^WT: Ki (nM): 799 ± 69 (Irradtion time (min): 15); Binding affinity to FIH^WT: Ki (nM): 758 ± 13 (Irradtion time (min): 30); Binding affinity to FIH^WT: Ki (nM): 744 ± 30 (Irradtion time (min): 60); Binding affinity to FIH^WT: Ki (nM): 788 ± 36 (Irradtion time (min): 90); Binding affinity to FIH^WT: Ki (nM): 786 ± 35 (Irradtion time (min): 120) | (C) NBA-ZG-2291: Binding affinity to FIH^K106A: Ki (nM): 442 ± 12 (Irradtion time (min): 0); Binding affinity to FIH^K106A: Ki (nM): 427 ± 22 (Irradtion time (min): 15); Binding affinity to FIH^K106A: Ki (nM): 426 ± 7 (Irradtion time (min): 30); Binding affinity to FIH^K106A: Ki (nM): 420 ± 11 (Irradtion time (min): 60); Binding affinity to FIH^K106A: Ki (nM): 418 ± 5 (Irradtion time (min): 90); Binding affinity to FIH^K106A: Ki (nM): 424 ± 12 (Irradtion time (min): 120) | (C) Neg-1: Binding affinity to FIH^K106A: Ki (nM): 271 ± 14 (Irradtion time (min): 0); Binding affinity to FIH^K106A: Ki (nM): 275 ± 15 (Irradtion time (min): 15); Binding affinity to FIH^K106A: Ki (nM): 268 ± 25 (Irradtion time (min): 30); Binding affinity to FIH^K106A: Ki (nM): 266 ± 22 (Irradtion time (min): 60); Binding affinity to FIH^K106A: Ki (nM): 264 ± 41 (Irradtion time (min): 90); Binding affinity to FIH^K106A: Ki (nM): 270 ± 3 (Irradtion time (min): 120) | (C) Neg-2: Binding affinity to FIH^K106A: Ki (nM): 567 ± 37 (Irradtion time (min): 0); Binding affinity to FIH^K106A: Ki (nM): 548 ± 61 (Irradtion time (min): 15); Binding affinity to FIH^K106A: Ki (nM): 521 ± 50 (Irradtion time (min): 30); Binding affinity to FIH^K106A: Ki (nM): 627 ± 17 (Irradtion time (min): 60); Binding affinity to FIH^K106A: Ki (nM): 565 ± 10 (Irradtion time (min): 90); Binding affinity to FIH^K106A: Ki (nM): 552 ± 38 (Irradtion time (min): 120) […]
3. Experimental procedures
3.1 Fluorescence polarization (FP) assays1 with FIHWT and FIHK106A pET28a vectors encoding for full-length FIH with an N-terminal His6 tag or for FIH (K106A) with an N-terminal His6 tag were purchased from Nanjing Zoonbio Biotechnology. Both the FIHWT and FIHK106A protein were expressed from the respective plasmid in Escherichia coli BL21 at 20 °C for 16 h. E. coli cells were lysed and the lysate were clarified by centrifugation. His6- […]

Usually Ki stands for a dissociation constant, usually derived from enzyme kinetics or from competition with a known ligand.

Where “and” joins values, the source holds several entries; their conditions need not be identical. Identical values can stand only once. Like-named read-outs stand apart in the source and are kept apart here.

T1 sequence (Q9NWT6 whole entry): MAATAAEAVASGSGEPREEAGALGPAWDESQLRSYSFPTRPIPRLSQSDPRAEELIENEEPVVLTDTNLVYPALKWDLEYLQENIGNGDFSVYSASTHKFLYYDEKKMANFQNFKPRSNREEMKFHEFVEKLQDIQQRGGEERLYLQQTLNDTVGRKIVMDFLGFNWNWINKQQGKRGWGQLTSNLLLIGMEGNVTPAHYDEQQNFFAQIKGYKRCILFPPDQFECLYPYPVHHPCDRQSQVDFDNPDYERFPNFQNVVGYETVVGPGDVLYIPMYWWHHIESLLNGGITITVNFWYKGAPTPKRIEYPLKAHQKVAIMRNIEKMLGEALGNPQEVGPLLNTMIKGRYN

On to `O=C(O)CNC(=O)c1ncc(-c2cc(-c3ccc(CO)c([N+](=O)[O-])c3)no2)cc1O` [NBA-ZG-2291], for which the Ki is 414 ± 14 nM (irradiation time 0 min); 74.1 ± 1.6 nM (irradiation time 15 min); ~40 nM and 46.7 nM (irradiation time 30 min); 33.2 ± 0.6 nM (irradiation time 60 min); 30.2 ± 2 nM (irradiation time 90 min); 32.1 ± 0.7 nM (irradiation time 120 min).
